According to US11945819B1, “Dimethyl 7-bromo-1-(4-substituted benzoyl)pyrrolo[1,2-a]quinoline-2,3-dicarboxylates as anti-inflammatory agents” (KING FAISAL UNIVERSITY, priority 2023, dated 2024):

How the values were obtained:
[1] = biological target: bovine serum albumin (Bos taurus, UniProt P02769); experiment: In vitro anti-inflammatory activity by inhibition of bovine serum albumin denaturation; type: biochemical; settings: for % Inhibition at 10 μg: inhibition of heat-induced albumin denaturation (60° C., 10 min), turbidity, average of triplicate; for inhibition rate: at 10 μg, bovine serum albumin denaturation method
Procedure: Accordingly, in an embodiment of the present subject matter, the dimethyl 7-bromo-1-(4- substituted benzoyl)pyrrolo[1,2-α]quinoline-2,3-dicarboxylates derivatives, or the dimethyl 7-bromo-1-(4-substituted benzoyl)pyrrolo[1,2-α]quinoline-2,3-dicarboxylates, as described herein were screened for their in vitro anti-inflammatory activity by inhibiting the bovine serum albumin denaturation method. The test compound is dissolved in a minimum amount of dimethyl sulphoxide (DMSO) and diluted with phosphate buffer. The final concentration of DMF in all solutions is less than 2.5%. Test solutions containing different concentrations of the drug is mixed with albumin solution in phosphate buffer and incubated at about 27-37° C.±10° C. for about at least 15 min. Denaturation is induced by keeping the reaction mixture at about 60° C.±10° C. in a water bath for at least about 10 min. After cooling, the turbidity is measured at about 210-660 nm (Shimadzu Spectrometer). Percentage inhibition of denaturation is calculated from a control where no drug was added. The percentage of inhibition is calculated from the following formula. The standard solution is also prepared as similar to that of the test solution. Ibuprofen can be used as a standard.
The newly synthesized compounds were screened for their in-vitro anti-inflammatory activity by inhibiting the bovine serum albumin denaturation method. The test compounds were dissolved in a minimum dimethyl sulphoxide (DMSO) and diluted with phosphate buffer (0.2M, pH 7.4). The final concentration of DMF in all solutions was less than 2.5%. Test solution (1 mL) containing different concentrations of the drug was mixed with 1 mL of 1 mm albumin solution in phosphate buffer and incubated at 27-37° C.±10° C. for 15 min. Denaturation was induced by keeping the reaction mixture at 60° C.±10° C. in a water bath for 10 min. After cooling, the turbidity was measured at 210-660 nm (Shimadzu Spectrometer). Percentage inhibition of denaturation was calculated from control where no drug was added. Each experiment was done in triplicate, and the average was taken. The percentage of inhibition is calculated from the following formula. The standard solution was also prepared as similar to that of the test solution. Ibuprofen was used as a standard.
The inhibition was calculated using the following equation: % Inhibition=100 (1−Vt/Vc) where, Vt=Drug absorbance of triplicate average Vc=Control absorbance of triplicate average

Sequence of bovine serum albumin (P02769 25-607): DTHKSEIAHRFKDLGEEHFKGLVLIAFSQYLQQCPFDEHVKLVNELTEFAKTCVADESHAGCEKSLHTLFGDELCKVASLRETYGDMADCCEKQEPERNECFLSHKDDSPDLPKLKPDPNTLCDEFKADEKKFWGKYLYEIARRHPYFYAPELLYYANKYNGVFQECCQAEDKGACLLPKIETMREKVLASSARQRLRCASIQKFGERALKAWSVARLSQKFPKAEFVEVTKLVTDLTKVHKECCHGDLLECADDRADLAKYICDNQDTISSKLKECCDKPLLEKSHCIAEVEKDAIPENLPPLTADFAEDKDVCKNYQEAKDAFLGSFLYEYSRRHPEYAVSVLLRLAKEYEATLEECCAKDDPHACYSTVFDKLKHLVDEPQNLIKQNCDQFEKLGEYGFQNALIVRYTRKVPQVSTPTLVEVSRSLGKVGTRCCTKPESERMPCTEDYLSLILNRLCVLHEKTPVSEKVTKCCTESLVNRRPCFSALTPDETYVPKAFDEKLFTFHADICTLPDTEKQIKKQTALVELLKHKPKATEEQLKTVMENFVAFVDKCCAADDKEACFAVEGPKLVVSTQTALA

Compound	melting point [°C]	% Inhibition at 10 μg [1] [%]	inhibition rate [1] [%]
COC(=O)c1c(C(=O)OC)c2ccc3cc(Br)ccc3n2c1C(=O)c1ccc(F)cc1 [Compound 3a, dimethyl 7-bromo-1-(4-fluorobenzoyl)pyrrolo[1,2-α]quinoline-2,3-dicarboxylate]	169 to 171	49.75	49.75
COC(=O)c1c(C(=O)OC)c2ccc3cc(Br)ccc3n2c1C(=O)c1ccc(Cl)cc1 [Compound 3b, dimethyl 7-bromo-1-(4-chlorobenzoyl)pyrrolo[1,2-α]quinoline-2,3-dicarboxylate]	210 to 212	42.52	42.52
COC(=O)c1c(C(=O)OC)c2ccc3cc(Br)ccc3n2c1C(=O)c1ccc(Br)cc1 [Compound 3c, dimethyl 7-bromo-1-(4-bromobenzoyl)pyrrolo[1,2-α]quinoline-2,3-dicarboxylate]	170 to 172	54.35	54.35
